The subject of this assay is nude mice, LX-1 lung xenograft intrarenal, tumor weight T/C. Briefly: NCI In Vivo Anticancer Drug Screen. Data for tumor model Human Lung LX-1 Xenograft (intrarenal inoculation) in NU/NU Swiss (nude) mice. The note with it: endpoint: mean tumor weight change, higher = larger tumour. Summed up:
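Activity was scored by measuring tumors in treated animals and in vehicle controls, then reporting the treated result as a fraction of the control result.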

The mark [1] stands for this setting: dose: 18.75 mg/kg/injection, schedule: Q04DX003 (sc), vehicle: saline with Tween-80.
[2] abbreviates: dose: 37.5 mg/kg/injection, schedule: Q04DX003 (sc), vehicle: saline with Tween-80.
[3] abbreviates: dose: 75.0 mg/kg/injection, schedule: Q04DX003 (sc), vehicle: saline with Tween-80.
Where [4] appears, read: dose: 150.0 mg/kg/injection, schedule: Q04DX003 (sc), vehicle: suspension in saline.
Where [5] appears, read: dose: 300.0 mg/kg/injection, schedule: Q04DX003 (sc), vehicle: suspension in saline.
The mark [6] stands for this setting: dose: 600.0 mg/kg/injection, schedule: Q04DX003 (sc), vehicle: suspension in saline.
Setting [7] is: dose: 25.0 mg/kg/injection, schedule: Q01DX010 (sc), vehicle: Klucel (hydroxypropylcellulose) (HPC).
[8] abbreviates: dose: 50.0 mg/kg/injection, schedule: Q01DX010 (sc), vehicle: Klucel (hydroxypropylcellulose) (HPC).
Setting [9] is: dose: 100.0 mg/kg/injection, schedule: Q01DX010 (sc), vehicle: Klucel (hydroxypropylcellulose) (HPC).
Setting [10] is: dose: 400.0 mg/kg/injection, schedule: Q01DX010 (sc), vehicle: Klucel (hydroxypropylcellulose) (HPC).
Setting [11] is: dose: 300.0 mg/kg/injection, schedule: Q04DX003 (sc), vehicle: Klucel (hydroxypropylcellulose) (HPC).
Where [12] appears, read: dose: 600.0 mg/kg/injection, schedule: Q04DX003 (sc), vehicle: Klucel (hydroxypropylcellulose) (HPC).

Values joined by “and” are separate entries in the source; they are usually repeats but may differ in a detail not shown here. Equal values may be shown once. Results filed as inconclusive are left out.

For `Cc1cn(C2CC(O)C(CO)O2)c(=O)[nH]c1=O` (stereo not given), the T/C reads like this: (dose: 800.0 mg/kg/injection, schedule: Q04DX003 (sc), vehicle: saline) 94 % of control; (dose: 1600.0 mg/kg/injection, schedule: Q04DX003 (sc), vehicle: saline) 70 % of control; (dose: 3200.0 mg/kg/injection, schedule: Q04DX003 (sc), vehicle: saline) 71 % of control; (dose: 6400.0 mg/kg/injection, schedule: Q04DX003 (sc), vehicle: saline) 61 % of control.
Regarding `[N-]=[N+]=CC(=O)CCC(=O)C=[N+]=[N-]`, the T/C is 69 % of control (dose: 1.5 mg/kg/injection, schedule: Q01DX010 (sc), vehicle: DMSO) and 27 % of control (dose: 3.0 mg/kg/injection, schedule: Q01DX010 (sc), vehicle: DMSO).
As to `CCc1nc(N)nc(N)c1-c1ccc(Cl)c([N+](=O)[O-])c1`, the T/C is 99 % of control (dose: 9.38 mg/kg/injection, schedule: Q04DX003 (sc), vehicle: saline with Tween-80); 108 % of control under setting [1]; 99 % of control under setting [2]; 119 % of control under setting [3].
Take `C1CN(P2(N3CC3)=NP(N3CC3)(N3CC3)=NP(N3CC3)(N3CC3)=N2)CCO1` (stereo not given): the T/C runs as follows: (dose: 6.25 mg/kg/injection, schedule: Q01DX010 (sc), vehicle: saline) 107 % of control; (dose: 12.5 mg/kg/injection, schedule: Q01DX010 (sc), vehicle: saline) 38 % of control and 43 % of control and 53 % of control; (dose: 25.0 mg/kg/injection, schedule: Q01DX010 (sc), vehicle: saline) 28 % of control and 29 % of control and 31 % of control; (dose: 25.0 mg/kg/injection, schedule: Q04DX003 (sc), vehicle: saline) 74 % of control and 82 % of control; (dose: 50.0 mg/kg/injection, schedule: Q01DX010 (sc), vehicle: saline) 6 % of control and 8 % of control; (dose: 50.0 mg/kg/injection, schedule: Q04DX003 (sc), vehicle: saline) 23 % of control and 35 % of control. Besides, the T/C (dose: 100.0 mg/kg/injection, schedule: Q04DX003 (sc), vehicle: saline) was 25 % of control.
In the case of `CSC(SC)=C1C(=O)NC(=O)NC1=O`, the T/C is 68 % of control under setting [4], 102 % of control under setting [5] and 42 % of control under setting [6].
Regarding `N#CC(C#N)=C/C=C/c1cccc([N+](=O)[O-])c1`, the T/C under setting [7] was 90 % of control; the T/C under setting [8] was 83 % of control; the T/C under setting [9] was 69 % of control; the T/C under setting [10] was 84 % of control; the T/C (dose: 800.0 mg/kg/injection, schedule: Q01DX010 (sc), vehicle: Klucel (hydroxypropylcellulose) (HPC)) is 42 % of control.
As to `CC(=O)c1c(O)c(C)c(O)c2c1OC1=CC(=O)C(C(C)=O)C(=O)C12C` (stereo not given), the T/C is 207 % of control (dose: 25.0 mg/kg/injection, schedule: Q01DX010 (sc), vehicle: sodium bicarbonate); 102 % of control (dose: 50.0 mg/kg/injection, schedule: Q01DX010 (sc), vehicle: sodium bicarbonate); 82 % of control and 104 % of control (dose: 200.0 mg/kg/injection, schedule: Q01DX010 (sc), vehicle: sodium bicarbonate).
For the molecule `CC12CCC3C(CCC4CC(OC(=O)Cc5ccc(N(CCCl)CCCl)cc5)CCC43C)C1CCC(=O)N2` (stereo not given), the T/C is, setting by setting: (dose: 25.0 mg/kg/injection, schedule: Q04DX003 (sc), vehicle: saline with Tween-80) 43 % of control and 66 % of control; (dose: 200.0 mg/kg/injection, schedule: Q04DX003 (sc), vehicle: saline with Tween-80) 8 % of control and 9 % of control.
Take `O=c1[nH]cnc2[nH]ncc12`: the T/C by setting is: under setting [4], 88 % of control; under setting [5], 100 % of control; under setting [6], 61 % of control.
On to `O=Cc1ccc(C(Cl)(Cl)Cl)cc1`, for which the T/C is, setting by setting: (dose: 50.0 mg/kg/injection, schedule: Q01DX010 (sc), vehicle: saline with Tween-80) 176 % of control; (dose: 200.0 mg/kg/injection, schedule: Q01DX010 (sc), vehicle: saline with Tween-80) 179 % of control; (dose: 800.0 mg/kg/injection, schedule: Q01DX010 (sc), vehicle: saline with Tween-80) 77 % of control.
`COc1cccc2c1C(=O)c1c(O)c3c(c(O)c1C2=O)C[C@@](O)(C(=O)COC(=O)c1cccnc1)C[C@@H]3OC1CC(N)C(O)C(C)O1` (stereo not given in full): the T/C (dose: 3.0 mg/kg/injection, schedule: Q04DX003 (sc), vehicle: saline) is 120 % of control; the T/C (dose: 12.0 mg/kg/injection, schedule: Q04DX003 (sc), vehicle: saline) was 75 % of control; the T/C (dose: 24.0 mg/kg/injection, schedule: Q04DX003 (sc), vehicle: saline) was 83 % of control.
Consider `COC1C(O)C(C)OC(OC2C(Oc3cccc4c(O)c5c(=O)oc6ccc(C)c7c(=O)oc(c34)c5c67)OC(C)C(O)C2O)C1O` (stereo not given), for which the T/C is 84 % of control under setting [8]; 63 % of control under setting [9]; 54 % of control (dose: 200.0 mg/kg/injection, schedule: Q01DX010 (sc), vehicle: Klucel (hydroxypropylcellulose) (HPC)); 58 % of control under setting [10].
As to `CC(=O)CC(C)=O.CC(=O)CC(C)=O.O=N[O-].O=N[O-].[Co]`, the T/C under setting [3] is 114 % of control.
For `COc1cc(O)c2c(O)c3c(c4c2c1[C@]1(C4)C(C)=CCCC1(C)C)[C@H](O)[C@@]1(O)CC(=O)C(C(N)=O)=C(O)[C@@]1(O)C3=O`, the T/C reads like this: (dose: 300.0 mg/kg/injection, schedule: Q04DX003 (sc), vehicle: saline with Tween-80) 55 % of control; (dose: 600.0 mg/kg/injection, schedule: Q04DX003 (sc), vehicle: saline with Tween-80) 58 % of control; (dose: 1200.0 mg/kg/injection, schedule: Q04DX003 (sc), vehicle: saline with Tween-80) 42 % of control.
Regarding `C=C1C(=O)OCC2C(C(=O)O)=CC3C(C)C(C)=CC123` (stereo not given), the T/C reads like this: (dose: 3.13 mg/kg/injection, schedule: Q01DX010 (sc), vehicle: Klucel (hydroxypropylcellulose) (HPC)) 56 % of control; (dose: 6.25 mg/kg/injection, schedule: Q01DX010 (sc), vehicle: Klucel (hydroxypropylcellulose) (HPC)) 109 % of control; (dose: 12.5 mg/kg/injection, schedule: Q01DX010 (sc), vehicle: Klucel (hydroxypropylcellulose) (HPC)) 78 % of control; under setting [7], 165 % of control.
For `COC(=O)C(F)C(Br)C(=O)OC` (stereo not given), the T/C under setting [1] was 91 % of control, the T/C under setting [2] was 111 % of control and the T/C under setting [3] was 90 % of control.
Take `Cc1cc(N2C(=O)CCSC2=S)ccc1Cl`: the T/C is 60 % of control (dose: 75.0 mg/kg/injection, schedule: Q04DX003 (sc), vehicle: Klucel (hydroxypropylcellulose) (HPC)); 111 % of control (dose: 150.0 mg/kg/injection, schedule: Q04DX003 (sc), vehicle: Klucel (hydroxypropylcellulose) (HPC)); 62 % of control under setting [11]; 75 % of control under setting [12].
As for `COC1=C2C[C@@H](C)C[C@@H](OC)[C@@H](O)[C@H](C)/C=C(\C)[C@@H](OC(N)=O)[C@H](OC)/C=C\C=C(/C)C(=O)NC(=CC1=O)C2=O`, the T/C is 77 % of control (dose: 1.0 mg/kg/injection, schedule: Q04DX003 (sc), vehicle: saline); 57 % of control (dose: 2.0 mg/kg/injection, schedule: Q04DX003 (sc), vehicle: saline); 104 % of control (dose: 4.0 mg/kg/injection, schedule: Q04DX003 (sc), vehicle: saline); 81 % of control (dose: 8.0 mg/kg/injection, schedule: Q04DX003 (sc), vehicle: saline).
In the case of `CC12CC(C(=O)O)C3(O)CC(C)(C1)CC(C)(C2)C3` (stereo not given) (tested in a mixture with another compound), the T/C is 86 % of control under setting [11]; 57 % of control under setting [12]; 105 % of control (dose: 1200.0 mg/kg/injection, schedule: Q04DX003 (sc), vehicle: Klucel (hydroxypropylcellulose) (HPC)); 105 % of control (dose: 2400.0 mg/kg/injection, schedule: Q04DX003 (sc), vehicle: Klucel (hydroxypropylcellulose) (HPC)).
Turning to `O=Cc1ccccc1`, the T/C is, setting by setting: (dose: 100.0 mg/kg/injection, schedule: Q04DX003 (sc), vehicle: Klucel (hydroxypropylcellulose) (HPC)) 64 % of control; (dose: 200.0 mg/kg/injection, schedule: Q04DX003 (sc), vehicle: Klucel (hydroxypropylcellulose) (HPC)) 75 % of control; (dose: 400.0 mg/kg/injection, schedule: Q04DX003 (sc), vehicle: Klucel (hydroxypropylcellulose) (HPC)) 73 % of control; (dose: 800.0 mg/kg/injection, schedule: Q04DX003 (sc), vehicle: Klucel (hydroxypropylcellulose) (HPC)) 112 % of control.

The values are drawn from PubChem BioAssay AID264 (DTP/NCI, 2004).
